Assay type in all cases: functional
In experiment [1] the test system is Mycobacterium tuberculosis. Kind of experiment: Antimycobacterial activity against multi drug resistant Mycobacterium tuberculosis 16833 assessed as reduction in bacterial growth by MABA analysis. In general terms: Alamar Blue is a resazurin reagent that responds to reducing activity.
The test system of experiment [2] is Mycobacterium tuberculosis. Kind of experiment: Antimycobacterial activity against multi drug resistant Mycobacterium tuberculosis 16995 assessed as reduction in bacterial growth by MABA analysis.
Experiment [3] has as its system Mycobacterium tuberculosis. The experiment can be described thus: Antimycobacterial activity against multi drug resistant Mycobacterium tuberculosis assessed as reduction in bacterial growth by two-fold agar dilution method. For orientation: In agar dilution, organisms are placed on agar that contains the substance at set levels.

Converted amounts (≈) assume the structure as drawn.

The MIC is the lowest concentration that inhibits growth of the organism. As to `CO[C@H]1/C=C/O[C@@]2(C)Oc3c(C)c(O)c4c(O)c(c(/C=N/N5CCN(C)CC5)c(O)c4c3C2=O)NC(=O)/C(C)=C\C=C\[C@H](C)[C@H](O)[C@@H](C)[C@@H](O)[C@@H](C)[C@H](OC(C)=O)[C@@H]1C` [RIFAMPIN], the MIC in experiment [1] and in experiment [2] was over 48.6 µM in each case.

In the case of `O=C(NCc1ccc(N2CCN(c3ccc(F)cc3F)CC2)cc1)c1ccc([N+](=O)[O-])o1`, the minimal inhibitory concentration (MIC) in experiment [1] was 4.16 µM (≈ 1.84 µg/mL); in experiment [2], 3.19 µM (≈ 1.41 µg/mL).

Regarding `O=C(NCc1ccc(N2CCN(c3ccc(F)cc3)CC2)cc1)c1ccc([N+](=O)[O-])o1`, the MIC came to 7.61 µM (≈ 3.23 µg/mL) in experiment [1] and 4.22 µM (≈ 1.79 µg/mL) in experiment [2].

As to `NNC(=O)c1ccncc1` [ISONIAZID], the minimal inhibitory concentration (MIC) in experiment [1] and in experiment [2] was 0.06 µM (≈ 0.00823 µg/mL) in each case.

Consider `COc1ccc(N2CCN(c3ccc(CNC(=O)c4ccc([N+](=O)[O-])o4)cc3)CC2)cc1`, for which the MIC in experiment [1] and in experiment [2] was 9.16 µM (≈ 4 µg/mL) throughout.

As for `O=C(/C=C(\O)c1cc(Cc2c(F)cc(F)cc2F)cn(Cc2ccccc2F)c1=O)C(=O)N1CCN(c2cccc3ccccc23)CC1`, in experiment [3], the MIC was at most 1.5 µM.

The values are drawn from ChEMBL document CHEMBL5214886, “An appraisal of anti-mycobacterial activity with structure-activity relationship of piperazine and its analogues: A review” (Eur J Med Chem, 2021).
